Patent publication US11707519B2, “Phosphorylated heptose compounds: process for their preparation and use” (priority 2017, dated 2023)

How the values were obtained:
N. meningitidis = test: Challenge of immunized mice with N. meningitidis strain expressing matching TbpB (sepsis model); format: in vivo, C57BL/6NCrl mice; settings: TbpB with adjuvant as opposed to TbpB alone
Method: (§1) FIG. 38: 6-week-old male C57BL/6NCrl mice were immunized with TbpB originating from group B N. meningitidis, purified from recombinant E. coli. All groups were immunized with 25 μg of TbpB with or without adjuvant, in a total volume of 30 μL intramuscularly: TbpB alone, TbpB+alum, and TbpB+HBP (200 μg). Three doses were given: D0, D21, and D28. Serum was collected at D0 prior to immunization, D14, D28, and D35 and then examined by ELISA for IgG titers to TbpB (FIG. 38A). Mice were challenged on D36 with 5×10^7 of N. meningitidis strain expressing the homologous TbpB. Mice were injected with human transferrin (200 μL of 8 mg/mL) as this is critical for the development of sepsis in this model. Mice were monitored at the 1 h, 12 h, 18 h, 24 h, and 36 h time points. At 1 h, blood was collected to enumerate CFUs (FIG. 38B). Clinical scores were collected at 12 h post challenge (FIG. 38C).
(§2) HBP can act as an adjuvant. 6-week-old male C57BL/6NCrl mice were immunized with TbpB originating from group B N. meningitidis, purified from recombinant E. coli. All groups were immunized with 25 μg of TbpB with or without adjuvant, in a total volume of 30 μL intramuscularly TbpB, TbpB+alum, and TbpB+HBP (equimolar to 200 μg). Three doses were given: D0, D21, D28. […] Mice were monitored at the 1 h, 12 h, 18 h, 24 h, and 36 h time points. […]

HCT 116 cells = test: IL-8 ELISA after stimulation of human colonic epithelial cells (HCT 116, WT or TIFA KO); format: cell-based; settings: 10 μg/mL synthetic compound, 20 minutes with digitonin, then 6 hours, FIG. 36
Method: (§3) FIG. 36: Stimulation of human colonic epithelial cells by compounds/products according to the invention. Human colonic epithelial cells (HCT 116) that were either wild type (WT) or deficient in TIFA protein expression (knockout, KO) were stimulated for 20 minutes in permeabilization buffer (5 μg/mL digitonin) in the presence of culture supernatant from N. meningitidis mutants with (gmhB) or without (hldA) HBP or 10 μg/mL of synthetic compound according to the invention. Treatment was removed, cells were washed, and cells were incubated for 6 hours in complete media and IL-8 levels in culture supernatants were measured by ELISA. The results are mean of technical duplicates.
as §3, with “Human” for “FIG. 36: Stimulation of human colonic epithelial cells by compounds/products according to the invention. Human”, “results obtained are illustrated in FIG. 36. They” for “results”

THP-1 cells = test: IL-8 ELISA after stimulation of human macrophage cells (THP-1); format: cell-based; settings: THP-1, 30 μM or 150 μM synthetic compound, 20 minutes with digitonin, then 6 hours; FIG. 37
Method: (§4) FIG. 37: Stimulation of human macrophages by compounds/products according to the invention. Human macrophage cells (THP-1) were stimulated for 20 minutes in permeabilization buffer (5 μg/mL digitonin) in the presence of water, 39.8 μM of the Nod1 agonist C12-iE-DAP (which stimulates in a TIFA-independent manner), or either 30 μM or 150 μM of synthetic compound according to the invention. Treatment was removed, cells were washed, and cells were incubated for 6 hours in complete media before the IL-8 levels in culture supernatants were measured by ELISA. The results are the mean and standard error of the mean of three technical replicates. Nod1 agonist: C12-iE-DAP (20 μg/mL, 39.8 μM); HBP: D-glycero-1-D-manno-heptose-1β,7-bi-phosphate.
as §4, with “Stimulation” for “FIG. 37: Stimulation”, “ELISA (FIG. 37).” for “ELISA.”, “Nod1 agonist: C12-iE-DAP (20 μg/mL, 39.8 μM); HBP: D-glycero-1-D-manno-heptose-1β,7-bi-phosphate.” left out

[1] = test system: TbpB originating from group B N. meningitidis; test: Adjuvant test: mice immunized with TbpB, serum IgG titers to TbpB by ELISA; format: in vivo, C57BL/6NCrl mice; settings: 25 μg TbpB with adjuvant intramuscularly, doses D0, D21, D28; serum D14, D28, D35; compared with TbpB alone and TbpB+alum; FIG. 38A
Method: as §1, §2

[2] = test system: NF-κB-driven luciferase reporter in HEK 293T cells; test: NF-κB-driven luciferase reporter assay in HEK 293T cells; format: cell-based; settings: 20 μg/mL synthetic compound, 20 minutes in permeabilization buffer (5 μg/mL digitonin), then 3.5 hours in complete medium; FIG. 35
Method: (§5) FIG. 35: Effects of compounds/products according to the invention on HEK 293T cells encoding an NF-κB-driven luciferase reporter gene. HEK 293T cells were transfected with a plasmid encoding an NF-κB-driven luciferase reporter. After 24 hours, cells were stimulated for 20 minutes in permeabilization buffer (5 μg/mL digitonin) in the presence of culture supernatant from N. meningitidis mutants with (gmhB) or without (hldA) HBP or 20 μg/mL of synthetic compounds according to the invention. Treatment was removed; cells were washed and incubated for 3.5 hours in complete medium. A luciferase assay was then performed. The results are mean of technical triplicates.
as §5, with “HEK” for “FIG. 35: Effects of compounds/products according to the invention on HEK 293T cells encoding an NF-κB-driven luciferase reporter gene. HEK”, “compound” for “compounds”, “results obtained are illustrated in FIG. 35. They” for “results”

O=P(O)(O)OC[C@@H](O)[C@H]1O[C@@H](OP(=O)(O)O)[C@@H](O)[C@@H](O)[C@@H]1O [HBP, D-glycero-D-manno-heptopyranose 1β,7-bisphosphate]
clinical scores (N. meningitidis; challenge D36, 12 h post challenge, FIG. 38C): lower | bacterial burden (CFU in blood) (N. meningitidis; challenge D36 with 5×10^7 N. meningitidis, blood at 1 h, FIG. 38B): reduced | cytokine expression (IL-8 levels in culture supernatants) (HCT 116 cells): can drive cytokine expression in vitro | cytokine expression (IL-8 levels in culture supernatants) (THP-1 cells): can drive cytokine expression in vitro | IgG titers to TbpB [1]: significantly higher than administration of TbpB alone and greater than observed with alum as the adjuvant | NF-κB stimulation (luciferase assay) [2]: can immunomodulate via NF-κB stimulation in vitro
